Earlier results in patent US8568704B2, “Dermatological/pharmaceutical compositions comprising benzoyl peroxide, at least one naphthoic acid compound and at least one polyurethane polymer” (Galderma Research & Development, priority 2006, dated 2013).
Read-outs that look alike come from different tables or passages of the source. Blank lines part the entries; values can stand above or below the compound they belong to.

What was measured:
[1] = in presence of benzoyl peroxide-based formulation
[2] = 40° C.

- tretinoin degraded ([1]; within 2 hours): 50%
- tretinoin degraded ([1]; within 24 hours): 95%
SMILES: CC1=C(/C=C/C(C)=C/C=C/C(C)=C/C(=O)O)C(C)(C)CCC1 [tretinoin]

SMILES: O=C(OOC(=O)c1ccccc1)c1ccccc1 [benzoyl peroxide]
- benzoyl peroxide degradation time ([2]; in ethanol): 29 days
- benzoyl peroxide degradation time ([2]; in propylene glycol): 53 days

- degradation of adapalene ([1]; for 24 hours): no degradation
SMILES: COc1ccc(-c2ccc3cc(C(=O)O)ccc3c2)cc1C12CC3CC(CC(C3)C1)C2 [adapalene, 6-[3-(1-adamantyl)-4-methoxyphenyl]-2-naphthoic acid]
